Laboratory results: US20240174611A1 (Rappta Therapeutics Oy, priority 2021, published 2024)

Tested on: LNCaP cells
Experiment: LNCaP cell viability assay (MTS)
Format: cell-based
Conditions: Homo sapiens, LNCaP, 48 h, LNCaP cell line, 48 hours treatment
Protocol: LNCaP cell line was used for the cell viability assay. LNCaP cells were plated in 96-well plates at a density of 5000 cells per well. After 24 hours of plating, the cells were treated with increasing doses of compound 1-100 ranging from 1 μM to 80 μM. Relative cell numbers were analyzed after 48 hours using 3-(4,5-dimethylthiazol-2-yl)-5-(3-carboxymethoxyphenyl)-2-(4-sulfophenyl)-2H-tetrazolium (MTS) assay (Promega) according to the manufacturer's instructions.
The cell viability data was analyzed with GraphPad Prism software. The values were log transformed and analyzed with non-linear regression (curve-fit) using log(inhibitor) vs. response—variable slope (four parameters) and constraining the bottom to equal zero. Unless otherwise indicated, the GI50 values provided in Table 35 correspond to the LNCaP cell viability assays.

SMILES | GI50 [µM]
CCC(C(=O)N1CCC(NS(=O)(=O)c2ccc(OC(F)(F)F)cc2)CC1)c1ccccc1 (centres unmarked) [Compound 17, N-(1-(2-phenylbutanoyl)piperidin-4-yl)-4-(trifluoromethoxy)benzene-sulfonamide] | 58
CCOC(=O)C1(NS(=O)(=O)c2ccc(OC(F)(F)F)cc2)CCc2ccccc21 (centres unmarked) [Compound 20] | 60
O=S(=O)(NC1CCN(c2cccc(OC(F)(F)F)c2)C1)c1ccc(OC(F)(F)F)cc1 (centres unmarked) [Compound 6] | 59.3
CC(C)Oc1ccc(S(=O)(=O)NC2(c3ccc(Cl)cc3)CCNCC2)cn1 [Compound 67, N-(4-(4-chlorophenyl)piperidin-4-yl)-6-isopropoxypyridine-3-sulfonamide] | 18.2
O=S(=O)(NC1(c2ccc(F)cc2)CCNC1)c1ccc(OC(F)(F)F)cc1 (centres unmarked) [Compound 74, N-(3-(4-fluorophenyl)pyrrolidin-3-yl)-4-(trifluoromethoxy)benzenesulfonamide] | 47.9
CS(=O)(=O)N1CCC(NS(=O)(=O)c2ccc(OC(F)(F)F)cc2)(c2ccc(Cl)cc2)C1 (centres unmarked) [Compound 72, N-(3-(4-chlorophenyl)-1-(methylsulfonyl)pyrrolidin-3-yl)-4-(trifluoromethoxy)benzenesulfonamide] | 50.4
O=S(=O)(NC1CC2(CCCC2)Oc2ccccc21)c1ccc(OC(F)(F)F)cc1 (centres unmarked) [Compound 18, N-(spiro[chromane-2,1′-cyclopentan]-4-yl)-4-(trifluoromethoxy)benzene-sulfonamide] | 37.4
CC1(C)C[C@H](NS(=O)(=O)c2ccc(OC(F)(F)F)cc2)c2cc(F)ccc2O1 [Compound 27, (S)-N-(6-fluoro-2,2-dimethylchroman-4-yl)-4-(trifluoromethoxy)benzene-sulfonamide] | 12
O=S(=O)(NC1(c2ccccc2)CCNCC1)c1ccc(OC(F)(F)F)nc1 [Compound 60, N-(4-phenylpiperidin-4-yl)-6-(trifluoromethoxy)pyridine-3-sulfonamide] | 49.6
O=S(=O)(NC1CCOc2c(F)ccc(F)c21)c1ccc(OC(F)(F)F)cc1 (centres unmarked) [Compound 10, N-(5,8-difluorochroman-4-yl)-4-(trifluoromethoxy)benzene-sulfonamide] | 67.5
CN(C1(c2ccc(Cl)cc2)CCNC1)S(=O)(=O)c1ccc(OC(F)(F)F)cc1 (centres unmarked) [Compound 85, N-(3-(4-chlorophenyl)pyrrolidin-3-yl)-N-methyl-4-(trifluoromethoxy)benzenesulfonamide] | 33.5
O=S(=O)(NC1(c2ccccc2)CNC1)c1ccc(OC(F)(F)F)cc1 [Compound 46, N-(3-phenylazetidin-3-yl)-4-(trifluoromethoxy)benzenesulfonamide] | ≥ 80
O=S(=O)(NC1(c2ccc(Cl)cc2F)CCNCC1)c1ccc(OC(F)(F)F)cc1 [Compound 94, N-(4-(4-chloro-2-fluorophenyl)piperidin-4-yl)-4-(trifluoromethoxy)benzenesulfonamide] | 15.8
COC(=O)C12CC3(C)CC(C)(CC(NS(=O)(=O)c4ccc(OC(F)(F)F)cc4)(C3)C1)C2 [Compound 21] | 30
O=S(=O)(NC1(c2ccccc2)CCN(Cc2ccccc2)C1)c1ccc(OC(F)(F)F)cc1 (centres unmarked) [Compound 35, N-(1-benzyl-3-phenylpyrrolidin-3-yl)-4-(trifluoromethoxy)benzene-sulfonamide] | 38.7
O=S(=O)(NC1CCCC1c1ccc(Cl)c(Cl)c1)c1ccc(OC(F)(F)F)cc1 (single isomer, unassigned) [Compound 43, N-(2-(3,4-dichlorophenyl)cyclopentyl)-4-(trifluoromethoxy)benzenesulfonamide] | 37.5
O=S(=O)(NC1(c2ccc(Cl)cc2)CCN(C2COC2)C1)c1ccc(OC(F)(F)F)cc1 (centres unmarked) [Compound 71, N-(3-(4-chlorophenyl)-1-(oxetan-3-yl)pyrrolidin-3-yl)-4-(trifluoromethoxy)benzenesulfonamide] | 59.1
O=S(=O)(NC1CCCN(c2ccc(Cl)c(Cl)c2)C1)c1ccc(OC(F)(F)F)cc1 (centres unmarked) [Compound 5, N-(1-(3,4-dichlorophenyl)piperidin-3-yl)-4-(trifluoromethoxy)benzene-sulfonamide] | 52.8
CC(C)(C)OC(=O)N1CCC([C@@H]2C[C@H]2NS(=O)(=O)c2ccc(OC(F)(F)F)cc2)CC1 (racemic) [Compound 24] | 16

Now from value to molecule:

GI50 [µM] | SMILES
18.2 | O=S(=O)(NC1(c2ccc(Cl)c(Cl)c2)CNC1)c1ccc(OC(F)(F)F)cc1 [Compound 48, N-(3-(3,4-dichlorophenyl)azetidin-3-yl)-4-(trifluoromethoxy)benzenesulfonamide]
70.5 | CC(C)Oc1ccc(S(=O)(=O)NC2(c3ccc(F)cc3)CCNC2)cc1 (centres unmarked) [Compound 78, N-(3-(4-fluorophenyl)pyrrolidin-3-yl)-4-isopropoxybenzenesulfonamide]
53 | O=S(=O)(NC1Cc2[nH]ncc2C(C(F)(F)F)C1)c1ccc(OC(F)(F)F)cc1 (centres unmarked) [Compound 26]
49 | O=S(=O)(NC1CCCc2cc(Cl)ccc21)c1ccc(OC(F)(F)F)cc1 (centres unmarked) [Compound 12, N-(6-chloro-1,2,3,4-tetrahydronaphthalen-1-yl)-4-(trifluoromethoxy)benzene-sulfonamide]
67.4 | COc1ccc(Cl)cc1N1CCC(NS(=O)(=O)c2ccc(OC(F)(F)F)cc2)C1 (centres unmarked) [Compound 2, N-(1-(5-chloro-2-methoxyphenyl)pyrrolidin-3-yl)-4-(trifluoromethoxy)benzene-sulfonamide]
41.9 | O=S(=O)(NC1(c2ccccc2)CCNC1)c1ccc(OC(F)(F)F)cc1 (centres unmarked) [Compound 36, N-(3-phenylpyrrolidin-3-yl)-4-(trifluoromethoxy)benzene-sulfonamide]
39 | COc1ccc(C2(NS(=O)(=O)c3ccc(OC(F)(F)F)cc3)CCOCC2)cc1F [Compound 29, N-(4-(3-fluoro-4-methoxyphenyl)tetrahydro-2H-pyran-4-yl)-4-(trifluoromethoxy)benzene-sulfonamide]
65.5 | Cc1cc(C2(NS(=O)(=O)c3ccc(OC(F)(F)F)c(N)c3)CCNC2)ccc1F (centres unmarked) [Compound 93, 3-amino-N-(3-(4-fluoro-3-methylphenyl)pyrrolidin-3-yl)-4-(trifluoromethoxy)benzenesulfonamide]
23.4 | O=S(=O)(NC1(c2ccc(Cl)c(F)c2)CCNC1)c1ccc(OC(F)(F)F)cc1 (centres unmarked) [Compound 52, N-(3-(4-chloro-3-fluorophenyl)pyrrolidin-3-yl)-4-(trifluoromethoxy)benzenesulfonamide]
45.8 | CC(C)CC(=O)N1CCC(NS(=O)(=O)c2ccc(OC(F)(F)F)cc2)(c2ccc(Cl)cc2)C1 (centres unmarked) [Compound 81, N-(3-(4-chlorophenyl)-1-(3-methylbutanoyl)pyrrolidin-3-yl)-4-(trifluoromethoxy)benzenesulfonamide]
36.5 | O=S(=O)(NC1(c2cc(F)ccc2F)CCNCC1)c1ccc(OC(F)(F)F)cc1 [Compound 88, N-(4-(2,5-difluorophenyl)piperidin-4-yl)-4-(trifluoromethoxy)benzenesulfonamide]
48.9 | O=S(=O)(NC1(c2ccccc2)CCCNC1)c1ccc(OC(F)(F)F)cc1 (centres unmarked) [Compound 90, N-(3-phenylpiperidin-3-yl)-4-(trifluoromethoxy)benzenesulfonamide]
65.9 | O=S(=O)(NC1CCCCC1Oc1ccc(F)cc1)c1ccc(OC(F)(F)F)cc1 (centres unmarked) [Compound 7, N-(2-(4-fluorophenoxy)cyclohexyl)-4-(trifluoromethoxy)benzene-sulfonamide]
